Source: paper PMC3759295 (Toxicology letters, 2013)
Several values for one entry are separate records, joined by “and”; a condition that tells them apart may be missing. Equal entries are not always repeated.

Assays:
[1] = test system: CYP1A1 mRNA; test: CYP1A1 mRNA expression in primary human hepatocytes; format: cell-based; settings: human
[2] = test system: CYP1A1 mRNA in primary human hepatocytes; test: as above; format: cell-based
[3] = biological target: T1, AhR (Homo sapiens, UniProt P35869); test: Gene reporter assay, transcriptional activity of AhR in AZ-AHR reporter cells; settings: 10 µM and 50 µM, 24 h
T1 sequence (P35869 11-848): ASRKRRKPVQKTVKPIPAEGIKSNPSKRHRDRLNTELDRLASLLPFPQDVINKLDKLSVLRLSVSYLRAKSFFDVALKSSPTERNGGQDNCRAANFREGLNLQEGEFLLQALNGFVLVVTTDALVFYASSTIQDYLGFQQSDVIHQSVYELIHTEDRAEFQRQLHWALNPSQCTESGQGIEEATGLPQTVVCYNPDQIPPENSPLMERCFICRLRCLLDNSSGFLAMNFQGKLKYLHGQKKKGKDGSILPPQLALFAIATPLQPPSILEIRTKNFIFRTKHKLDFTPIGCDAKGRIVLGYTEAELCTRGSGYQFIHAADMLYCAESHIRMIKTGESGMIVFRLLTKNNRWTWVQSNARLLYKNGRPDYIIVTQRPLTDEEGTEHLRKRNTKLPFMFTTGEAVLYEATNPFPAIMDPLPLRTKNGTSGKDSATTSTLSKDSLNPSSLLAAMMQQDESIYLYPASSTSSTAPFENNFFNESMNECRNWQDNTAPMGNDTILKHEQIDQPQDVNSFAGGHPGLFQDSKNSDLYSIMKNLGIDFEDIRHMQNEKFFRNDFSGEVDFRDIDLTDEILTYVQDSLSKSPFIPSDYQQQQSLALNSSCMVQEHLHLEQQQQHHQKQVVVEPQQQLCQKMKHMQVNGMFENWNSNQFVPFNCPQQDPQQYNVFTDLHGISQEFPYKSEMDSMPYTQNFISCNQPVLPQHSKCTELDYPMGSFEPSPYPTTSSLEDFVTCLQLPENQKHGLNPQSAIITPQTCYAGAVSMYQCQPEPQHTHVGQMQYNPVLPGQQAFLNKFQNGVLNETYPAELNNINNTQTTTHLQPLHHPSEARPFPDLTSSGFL

[4] = biological target: T2, CYP1A1 (Homo sapiens, UniProt P04798); test: Enzyme activity of CYP1A1 in human liver microsomes; format: biochemical; settings: 100 µM
T2 sequence (P04798 1-512): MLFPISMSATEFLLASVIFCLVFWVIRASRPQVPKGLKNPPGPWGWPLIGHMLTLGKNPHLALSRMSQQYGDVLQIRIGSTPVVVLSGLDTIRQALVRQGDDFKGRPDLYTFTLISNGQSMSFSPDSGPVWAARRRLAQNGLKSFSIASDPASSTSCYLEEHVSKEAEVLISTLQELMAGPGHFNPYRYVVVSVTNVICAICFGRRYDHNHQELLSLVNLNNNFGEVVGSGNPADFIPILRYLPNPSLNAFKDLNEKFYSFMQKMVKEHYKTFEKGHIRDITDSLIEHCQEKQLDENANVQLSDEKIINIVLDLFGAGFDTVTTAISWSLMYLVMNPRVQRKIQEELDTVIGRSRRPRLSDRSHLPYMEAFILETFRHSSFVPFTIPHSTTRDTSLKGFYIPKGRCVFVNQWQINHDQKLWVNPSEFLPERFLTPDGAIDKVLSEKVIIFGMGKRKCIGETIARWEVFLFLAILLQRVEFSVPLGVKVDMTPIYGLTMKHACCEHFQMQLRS

[5] = test system: CYP1A1 protein in primary human hepatocytes; test: CYP1A1 protein in primary human hepatocytes
[6] = test system: CYP1A1 mRNA in LS174T cells; test: CYP1A1 mRNA expression in LS174T cells; settings: TCDD 5 nM, 24 h, two independent experiments
[7] = test system: CYP1A1 mRNA in HepG2 cells; test: CYP1A1 mRNA expression in HepG2 cells; settings: HepG2, TCDD 5 nM, 24 h, two independent experiments
[8] = test system: CYP1A1 protein in HepG2 cells; test: CYP1A1 protein in HepG2 cells; format: cell-based, human; settings: HepG2, TCDD 5 nM, 48 h
[9] = test system: CYP1A1 protein in LS174T cells; test: CYP1A1 protein in LS174T cells; format: cell-based, human; settings: TCDD 5 nM, 48 h
[10] = test system: CYP1A1; settings: read-out: IC50, inhibition of CYP1A1; aglycons (anthocyanidins); ref Kamenickova et al. 2013; cited from earlier work
[11] = primary human hepatocytes (culture LH48 as printed)
[12] = male, primary human hepatocytes (culture LH45)
[13] = male, primary human hepatocytes (culture LH46)
[14] = male, primary human hepatocytes (culture LH47)
[15] = hepatocyte culture LH45, 10 µM, 24 h
[16] = hepatocyte culture LH45, 50 µM, 24 h
[17] = hepatocyte culture LH46, 10 µM, 24 h
[18] = hepatocyte culture LH46, 50 µM, 24 h
[19] = hepatocyte culture LH47, 50 µM, 24 h
[20] = hepatocyte culture LH48 (so in the source), 50 µM, 24 h

SMILES: OC[C@H]1O[C@@H](Oc2cc3c(O)cc(O)cc3[o+]c2-c2ccc(O)c(O)c2)[C@H](O)[C@@H](O)[C@@H]1O [CYA-1, cyanidin-3-O-glucoside chloride]
- fold induction at 24 h, 50 µM [1, 11]: 0.03
- fold induction at 24 h, 10 µM [1, 12]: 1.22 ± 0.04
- fold induction at 24 h, 50 µM [1, 12]: 0.73 ± 0.22
- fold induction at 24 h, 10 µM [1, 13]: 1.14 ± 0.2
- fold induction at 24 h, 50 µM [1, 13]: 1.04 ± 0.12
- fold induction at 24 h, 50 µM [1, 14]: 0.28 ± 0.01

SMILES: COc1cc(-c2[o+]c3cc(O)cc(O)c3cc2O[C@@H]2O[C@H](CO)[C@@H](O)[C@H](O)[C@H]2O)cc(OC)c1O [MAL-1, malvidin-3-O-glucoside chloride]
- fold induction at 24 h, 50 µM [1, 11]: 0.29 ± 0.03
- fold induction at 24 h, 10 µM [1, 12]: 1.13 ± 0.35
- fold induction at 24 h, 50 µM [1, 12]: 0.93 ± 0.11
- fold induction at 24 h, 10 µM [1, 13]: 2.34 ± 0.25
- fold induction at 24 h, 50 µM [1, 13]: 1.56 ± 0.23
- fold induction at 24 h, 50 µM [1, 14]: 0.14 ± 0.13

SMILES: COc1cc(-c2[o+]c3cc(O)cc(O[C@@H]4O[C@H](CO)[C@@H](O)[C@H](O)[C@H]4O)c3cc2O[C@@H]2O[C@H](CO)[C@@H](O)[C@H](O)[C@H]2O)cc(OC)c1O.[Cl-] [MAL-2, malvidin-3,5-di-O-glucoside chloride]
- CYP1A1 mRNA fold induction over the vehicle-treated cells, LH45 [2, 15]: 1.14 ± 0.28 fold
- CYP1A1 mRNA fold induction over the vehicle-treated cells, LH45 [2, 16]: 0.44 ± 0.01 fold
- CYP1A1 mRNA fold induction over the vehicle-treated cells, LH46 [2, 17]: 1.72 ± 0.39 fold
- CYP1A1 mRNA fold induction over the vehicle-treated cells, LH46 [2, 18]: 1.64 ± 0.38 fold
- CYP1A1 mRNA fold induction over the vehicle-treated cells, LH47 [2, 19]: 0.56 ± 0.07 fold
- CYP1A1 mRNA fold induction over the vehicle-treated cells, LH48 [2, 20]: 0.93 ± 0.09 fold

SMILES: COc1cc(-c2[o+]c3cc(O)cc(O)c3cc2O[C@@H]2O[C@H](CO)[C@H](O)[C@H](O)[C@H]2O)cc(OC)c1O.[Cl-] [MAL-3, malvidin-3-O-galactoside chloride]
- CYP1A1 mRNA fold induction over the vehicle-treated cells, LH45 [2, 15]: 0.12 ± 0.00 fold
- CYP1A1 mRNA fold induction over the vehicle-treated cells, LH45 [2, 16]: 0.28 ± 0.04 fold
- CYP1A1 mRNA fold induction over the vehicle-treated cells, LH46 [2, 17]: 0.87 ± 0.02 fold
- CYP1A1 mRNA fold induction over the vehicle-treated cells, LH46 [2, 18]: 1.32 ± 0.05 fold
- CYP1A1 mRNA fold induction over the vehicle-treated cells, LH47 [2, 19]: 0.54 ± 0.02 fold
- CYP1A1 mRNA fold induction over the vehicle-treated cells, LH48 [2, 20]: 0.33 ± 0.02 fold

SMILES: Oc1cc(O)c2c(c1)O[C@@]1(c3ccc(O)c(O)c3)Oc3cc(O)c4c(c3[C@@H]2[C@H]1O)O[C@H](c1ccc(O)c(O)c1)[C@H](O)C4 [PAC, proanthocyanidin A2]
- induction of luciferase activity [3]: No significant induction

SMILES: OC[C@H]1O[C@@H](Oc2cc3c(O[C@@H]4O[C@H](CO)[C@@H](O)[C@H](O)[C@H]4O)cc(O)cc3[o+]c2-c2ccc(O)cc2)[C@H](O)[C@@H](O)[C@@H]1O [PEL-1, pelargonidin-3,5-di-O-glucoside chloride]
- CYP1A1 mRNA fold induction over the vehicle-treated cells, LH45 ([2]; 10 µM): 0.70 ± 0.17 fold
- CYP1A1 mRNA fold induction over the vehicle-treated cells, LH46 ([2]; 10 µM): 1.49 ± 0.10 fold
- CYP1A1 mRNA fold induction over the vehicle-treated cells, LH45 ([2]; 50 µM): 1.17 ± 0.14 fold
- CYP1A1 mRNA fold induction over the vehicle-treated cells, LH46 ([2]; 50 µM): 2.21 ± 0.66 fold
- CYP1A1 mRNA fold induction over the vehicle-treated cells, LH47 ([2]; 50 µM): 0.59 ± 0.52 fold
- CYP1A1 mRNA fold induction over the vehicle-treated cells, LH48 ([2]; 50 µM): 0.98 ± 0.27 fold

SMILES: CC1OC(OCC2OC(Oc3cc4c(O)cc(O)cc4[o+]c3-c3ccc(O)cc3)C(O)C(O)C2O)C(O)C(O)C1O.[Cl-] (stereo not drawn) [PEL-2, pelargonidin-3-O-rutinoside chloride]
- induction of luciferase activity [3]: concentration-dependent induction
- CYP1A1 activity remaining, % of the initial activity (without anthocyanin) [4]: 79%
- CYP1A1 mRNA fold induction over the vehicle-treated cells, LH45 [2, 15]: 0.87 ± 0.04 fold
- CYP1A1 mRNA fold induction over the vehicle-treated cells, LH45 [2, 16]: 0.24 ± 0.01 fold
- CYP1A1 mRNA fold induction over the vehicle-treated cells, LH46 [2, 17]: 2.66 ± 0.20 fold
- CYP1A1 mRNA fold induction over the vehicle-treated cells, LH46 [2, 18]: 2.39 ± 0.22 fold
- CYP1A1 mRNA fold induction over the vehicle-treated cells, LH47 [2, 19]: 0.61 ± 0.01 fold
- CYP1A1 mRNA fold induction over the vehicle-treated cells, LH48 [2, 20]: 0.60 ± 0.17 fold
- induction of CYP1A1 mRNA ([2]; hepatocytes): Neither compound induced
- induction of CYP1A1 protein ([5]; four different primary human hepatocytes cultures): Neither compound induced

SMILES: COc1cc(-c2[o+]c3cc(O)cc(O)c3cc2O[C@@H]2O[C@H](CO)[C@@H](O)[C@H](O)[C@H]2O)ccc1O.[Cl-] [PEO-1, peonidin-3-O-glucoside chloride]
- CYP1A1 mRNA fold induction over the vehicle-treated cells, LH45 [2, 15]: 0.21 ± 0.03 fold
- CYP1A1 mRNA fold induction over the vehicle-treated cells, LH45 [2, 16]: 0.80 ± 0.22 fold
- CYP1A1 mRNA fold induction over the vehicle-treated cells, LH46 [2, 17]: 2.14 ± 0.18 fold
- CYP1A1 mRNA fold induction over the vehicle-treated cells, LH46 [2, 18]: 2.48 ± 0.57 fold
- CYP1A1 mRNA fold induction over the vehicle-treated cells, LH47 [2, 19]: 0.51 ± 0.07 fold
- CYP1A1 mRNA fold induction over the vehicle-treated cells, LH48 [2, 20]: 0.08 ± 0.03 fold

SMILES: Clc1cc2c(cc1Cl)Oc1cc(Cl)c(Cl)cc1O2 [TCDD, 2,3,7,8-Tetrachlorodibenzo-p-dioxin]
- induction of CYP1A1 mRNA [6]: 1003 fold and 724 fold
- induction of CYP1A1 mRNA [7]: 322 fold and 216 fold
- CYP1A1 mRNA fold induction over the vehicle-treated cells, LH45 ([2]; hepatocyte culture LH45, TCDD 5 nM, 24 h): 125.4 ± 17.7 fold
- CYP1A1 mRNA fold induction over the vehicle-treated cells, LH47 ([2]; hepatocyte culture LH47, TCDD 5 nM, 24 h): 104.7 ± 13.4 fold
- magnitude of induction of CYP1A1 mRNA, LH49 ([2]; hepatocyte culture LH49, TCDD, 24 h): 71 fold
- levels of CYP1A1 protein [8]: strongly induced
- levels of CYP1A1 protein ([5]; four human hepatocytes cultures, TCDD 5 nM, 48 h): strongly induced
- levels of CYP1A1 protein [9]: strongly induced

SMILES: Oc1cc(O)c2cc(O)c(-c3cc(O)c(O)c(O)c3)[o+]c2c1 [delphinidin]
- IC50 [10]: 77 µM

SMILES: Oc1ccc(-c2[o+]c3cc(O)cc(O)c3cc2O)cc1 [pelargonidin]
- IC50 [10]: 33 µM
